Reference: paper PMC12514245, “Impaired migration and lung invasion of human melanoma by a novel small molecule targeting the transmembrane domain of death receptor p75^NTR” (EMBO Molecular Medicine, 2025)
Values joined by “and” are separate entries in the source; they are usually repeats but may differ in a detail not shown here. Equal entries are not always repeated. “Also recorded” adds a separate entry of the source. Where two headings read alike, the source gives them in different places.

What was measured:
[1] = Cell viability (Presto Blue), A875 shp75; format: cell-based, human; settings: human, A875 shp75 cells, 2 days; for viability at 2 days, 1 uM: Div17E5 1 uM; for viability at 2 days, 1.5 uM: Div17E5 1.5 uM
Method: (§1) To measure the cytotoxic effect of Div17E5, A875 NT or shp75 cells were seeded at 2000 cells per well (in 100 μL DMEM) in a 96-well plate and incubated for 12 h. Next, Div17E5 at various concentrations was added and incubated at 37 °C in 5% CO2 for 2 days. Following treatment, 10 μL Presto Blue® (resazurin, ThermoFIsher) was added to each well of the 96-well plate and incubated for 2 h at 37 °C in 5% CO2. Cellular fluorescence in each well was measured at 535 nm excitation and 615 nm emission using a microtiter plate reader. Data was converted into the relative cell viability (%) from the fluorescence of cells in each treatment relative to that of the DMSO control group (set as 100%).

A875 shp75 cells = experiment: Cell viability (Presto Blue), A875 shp75; format: cell-based, human; settings: for viability at 5 µM: Div17E5 5 uM
Method: as §1

human 70W cells = experiment: Lung invasion after intravenous injection of 70W cells; settings: 70W cells lose p75ntr expression in vivo
Method: A875 NT cells that both wound areas decreased from 1 to ~0.75 in 24 hours. But in […]
Do the in vitro assays recapitulate melanoma invasiveness? If not, is it possible the ideal compounds were missed from the screening in melanoma cells (Figure 6)? […] This assay simply scores the relative orientation/conformation of the interacting receptor TMDs in isolation form the rest of the receptor. The wound healing assay is a rather simplistic assay of cell motility. The in vitro assay that better recapitulates what may happen in vivo is the Boyden chamber migration/invasion assay.
2. In Figure 7A, co-IP experiment requires input and IgG control to show positivity and specificity. In Figure 7B, quantification using the ratio of Triton-insoluble fascin to total fascin will be much more solid than only showing the western blot.
The input control was added in 7A and quantification in 7B (also in 7A).
"NGF treatment strongly stimulated the association of fascin with p75NTR".
The labels in the Western blot shown in this panel were incorrect. They have now been […]
4. Validation of results in another human cell line
During the past year, multiple tests were done by intravenous injection of human 70W cells, […]
followed by monitoring cells in the lungs in the presence and absence of drug treatment. […]
in vivo environment. […]

[2] = mouse, in vivo
[3] = biological target: TMD of TNF receptor 2 (TNFR2) (Homo sapiens, UniProt P20333); experiment: 2D NMR chemical shift perturbation, TNFR2 TMD in bicelles; format: binding; settings: 4 molar excess compound
[4] = format: in vivo; settings: oral gavage 200 mg/kg daily (5 days on, 2 days off), 3 weeks; female SCID
[5] = N=3, read-out: Cell Viability, Mean
[6] = read-out: Cell Viability, n1-n3

Chain of TMD of TNF receptor 2 (TNFR2) (P20333 258-290 limits assumed): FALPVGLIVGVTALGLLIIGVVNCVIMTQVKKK

Oc1ccc(-c2cncc(Nc3ccc(Br)c(Cl)c3)n2)cc1 [Div17E5]
viability at 2 days, 0.5 uM ([1]; Div17E5 0.5 uM, read-out: Cell Viability, n1-n3): 101%
viability at 2 days, 1 uM [1, 5]: 107%
viability at 2 days, 1 uM [1, 6]: 101%
viability at 2 days, 1.5 uM [1, 5]: 103%
viability at 2 days, 1.5 uM [1, 6]: 107%
Cell Viability, n1-n3 (A875 shp75 cells; Div17E5 0.5 uM, 2 days): 104%
Cell Viability, n1-n3 (A875 shp75 cells; Div17E5 1 uM, 2 days): 109% and 112%
Cell Viability, n1-n3 (A875 shp75 cells; Div17E5 1.5 uM, 2 days): 100%
Cell Viability, n1-n3 (A875 shp75 cells; Div17E5 2 uM, 2 days): 96% and 100%
Cell Viability, n1-n3 (A875 shp75 cells; Div17E5 2.5 uM, 2 days): 90% and 99%
Cell Viability, n1-n3 (A875 shp75 cells; Div17E5 7.5 uM, 2 days): 81% and 91%
Cell Viability, n1-n3 (A875 shp75 cells; Div17E5 10 uM, 2 days): 90% and 78%
viability at 0.5 µM (A875 shp75 cells; Homo sapiens, A875, 48 h, Div17E5 0.5 uM, 2 days, N=3): 103%
viability at 2 µM (A875 shp75 cells; Homo sapiens, A875, 48 h, Div17E5 2 uM, 2 days, N=3, read-out: Cell Viability, Mean): 101%
viability at 2 µM (A875 shp75 cells; Homo sapiens, A875, 48 h, Div17E5 2 uM, 2 days, read-out: Cell Viability, n1-n3): 107%
viability at 2.5 µM (A875 shp75 cells; Homo sapiens, A875, 48 h, Div17E5 2.5 uM, 2 days, N=3, read-out: Cell Viability, Mean): 92%
viability at 2.5 µM (A875 shp75 cells; Homo sapiens, A875, 48 h, Div17E5 2.5 uM, 2 days, read-out: Cell Viability, n1-n3): 86%
viability at 5 µM (A875 shp75 cells; Homo sapiens, A875, 48 h, 2 days, N=3, read-out: Cell Viability, Mean): 93%
viability at 5 µM (A875 shp75 cells; Homo sapiens, A875, 48 h, 2 days, read-out: Cell Viability, n1-n3): 101%
viability at 7.5 µM (A875 shp75 cells; Homo sapiens, A875, 48 h, Div17E5 7.5 uM, 2 days, N=3, read-out: Cell Viability, Mean): 86%
viability at 7.5 µM (A875 shp75 cells; Homo sapiens, A875, 48 h, Div17E5 7.5 uM, 2 days, read-out: Cell Viability, n1-n3): 85%
viability at 10 µM (A875 shp75 cells; Homo sapiens, A875, 48 h, Div17E5 10 uM, 2 days, N=3, read-out: Cell Viability, Mean): 84%
viability at 10 µM (A875 shp75 cells; Homo sapiens, A875, 48 h, Div17E5 10 uM, 2 days, read-out: Cell Viability, n1-n3): 85%
cell viability (A875 shp75 cells; above 10 μM): sensitive
cell viability (A875 shp75 cells; doses up to 10 μM): largely refractory

Cc1cccc(-c2cncc(Nc3ccc(Br)c(Cl)c3Cl)n2)c1C [Np75-4A22]
number of metastasized 70W cells in the lungs (human 70W cells): had no effect on the number of metastasized cells
single dose toxicity [2]: No mortality or abnormal clinical signs
chemical shift perturbations, TNFR2 TMD [3]: essentially no interaction; also recorded: no or minimal chemical shift perturbations
mortality, clinical signs and gross histological pathology [4]: No mortality or adverse clinical signs
